Experimental data: ChEMBL document CHEMBL3046032, “Synthesis and biological evaluation of novel AM80 derivatives as antileukemic agents” (Med Chem Res, 2013)

Experiments:
Format in all cases: functional, cell-based
[1] = test system: NB-4; assay: Cytotoxicity against Homo sapiens (human) NB4 cells assessed as growth inhibition after 48 hr by MTT assay; details: NB-4, 48 h
[2] = test system: K562; assay: Cytotoxicity against Homo sapiens (human) K562 cells assessed as growth inhibition after 48 hr by MTT assay; details: K562, 48 h
[3] = test system: HL-60; assay: Cytotoxicity against Homo sapiens (human) HL60 cells assessed as growth inhibition after 48 hr by MTT assay; details: HL-60, 48 h

SMILES	IC50 [1] [µM]	IC50 [2] [µM]	IC50 [3] [µM]
CCCC(=O)OCCOC(=O)c1ccc(C(=O)Nc2ccc3c(c2)C(C)(C)CCC3(C)C)cc1	11	18.6	6.29
Cc1cc2c(cc1C(=O)c1ccc(C(=O)NCCCCCCNC(=O)c3ccc(C(=O)Nc4ccc5c(c4)C(C)(C)CCC5(C)C)cc3)cc1)C(C)(C)CCC2(C)C	> 1000	95.4	95.4
CCCC(CCC)C(=O)NCCNC(=O)c1ccc(C(=O)Nc2ccc3c(c2)C(C)(C)CCC3(C)C)cc1	5.69	83.7	12.4
C=C(c1ccc(C(=O)NCCOC(=O)c2ccc(C(=O)Nc3ccc4c(c3)C(C)(C)CCC4(C)C)cc2)cc1)c1cc2c(cc1C)C(C)(C)CCC2(C)C	> 1000	> 1000	504
Cc1cc2c(cc1C(=O)c1ccc(C(=O)OCCOC(=O)c3ccc(C(=O)Nc4ccc5c(c4)C(C)(C)CCC5(C)C)cc3)cc1)C(C)(C)CCC2(C)C	67	39.9	6.83
CCCC(CCC)C(=O)OCCCOC(=O)c1ccc(C(=O)Nc2ccc3c(c2)C(C)(C)CCC3(C)C)cc1	> 1000	> 1000	835
CCCC(=O)OCCNC(=O)c1ccc(C(=O)Nc2ccc3c(c2)C(C)(C)CCC3(C)C)cc1	213	25.4	36.8
CCCC(CCC)C(=O)OCCNC(=O)c1ccc(C(=O)Nc2ccc3c(c2)C(C)(C)CCC3(C)C)cc1	> 1000	> 1000	> 1000
CCCC(=O)OCCCCOC(=O)c1ccc(C(=O)Nc2ccc3c(c2)C(C)(C)CCC3(C)C)cc1	23.2	92.6	7.32
Cc1cc2c(cc1C(=O)c1ccc(C(=O)OCCCOC(=O)c3ccc(C(=O)Nc4ccc5c(c4)C(C)(C)CCC5(C)C)cc3)cc1)C(C)(C)CCC2(C)C	112	49.1	14.9
Cc1cc2c(cc1C(=O)c1ccc(C(=O)NCCOC(=O)c3ccc(C(=O)Nc4ccc5c(c4)C(C)(C)CCC5(C)C)cc3)cc1)C(C)(C)CCC2(C)C	72.4	247	37.5
CCCC(=O)OCCCOC(=O)c1ccc(C(=O)Nc2ccc3c(c2)C(C)(C)CCC3(C)C)cc1	5.75	4.57	2.99
CCCC(CCC)C(=O)OCCOC(=O)c1ccc(C(=O)Nc2ccc3c(c2)C(C)(C)CCC3(C)C)cc1	> 1000	664	256
Cc1cc2c(cc1C(=O)c1ccc(C(=O)OCCCCOC(=O)c3ccc(C(=O)Nc4ccc5c(c4)C(C)(C)CCC5(C)C)cc3)cc1)C(C)(C)CCC2(C)C	147	84	24.7
C=C(c1ccc(C(=O)OCCCOC(=O)c2ccc(C(=O)Nc3ccc4c(c3)C(C)(C)CCC4(C)C)cc2)cc1)c1cc2c(cc1C)C(C)(C)CCC2(C)C	212	> 1000	19.2
CCCC(=O)NCCNC(=O)c1ccc(C(=O)Nc2ccc3c(c2)C(C)(C)CCC3(C)C)cc1	3.26	7.98	5.61
C=C(c1ccc(C(=O)NCCNC(=O)c2ccc(C(=O)Nc3ccc4c(c3)C(C)(C)CCC4(C)C)cc2)cc1)c1cc2c(cc1C)C(C)(C)CCC2(C)C	569	73.5	14.8
C=C(c1ccc(C(=O)NCCCCCCNC(=O)c2ccc(C(=O)Nc3ccc4c(c3)C(C)(C)CCC4(C)C)cc2)cc1)c1cc2c(cc1C)C(C)(C)CCC2(C)C	> 1000	294	70.7
C=C(c1ccc(C(=O)OCCCCOC(=O)c2ccc(C(=O)Nc3ccc4c(c3)C(C)(C)CCC4(C)C)cc2)cc1)c1cc2c(cc1C)C(C)(C)CCC2(C)C	650	> 1000	25.1
C=C(c1ccc(C(=O)OCCOC(=O)c2ccc(C(=O)Nc3ccc4c(c3)C(C)(C)CCC4(C)C)cc2)cc1)c1cc2c(cc1C)C(C)(C)CCC2(C)C	> 1000	504	30.7
Cc1cc2c(cc1C(=O)c1ccc(C(=O)NCCNC(=O)c3ccc(C(=O)Nc4ccc5c(c4)C(C)(C)CCC5(C)C)cc3)cc1)C(C)(C)CCC2(C)C	104	39.6	14.3
CCCC(CCC)C(=O)OCCCCOC(=O)c1ccc(C(=O)Nc2ccc3c(c2)C(C)(C)CCC3(C)C)cc1	> 1000	> 1000	914
